This note sets out measurements from PMC9504029, “Identification and Characterization of Novel Small-Molecule SMOX Inhibitors” (Medical Sciences, 2022).

In one data set the target is T1, SMOX (Homo sapiens, UniProt Q9NWM0).
T1 construct: using 0.3 µg/mL of purified SMOX enzyme and 2 mM of spermine substrate
The data set can be described thus: Mechanism of inhibition and enzyme kinetics (Lineweaver–Burk, global fit). The class given is biochemical. As to the method: The mechanism of enzyme inhibition was determined using the HRP-luminol coupled enzyme assay described above. Reaction velocity (max RLU/sec over 10 min) was measured across multiple substrate and inhibitor concentrations, and individual triplicate values were plotted using a Lineweaver–Burk transformation (double-reciprocal) in GraphPad Prism 9.3 software (Graph-Pad, San Diego, CA, USA).

The target in another data set is T2, LSD1 (Homo sapiens, UniProt O60341).
T2 construct: purchased Cayman Chemical #700120
The data set can be described thus: LSD1 selectivity assay (Cayman kit, resorufin fluorescence). The class given is biochemical. The conditions noted are these: read-out: % Inhibition at 20 μM ± SD, LSD1.

The target in another data set is T3, recombinant human MAO-A (Homo sapiens, UniProt P21397).
T3 construct: purchased Sigma-Aldrich M7316-1VL
T3 sequence (P21397 1-527): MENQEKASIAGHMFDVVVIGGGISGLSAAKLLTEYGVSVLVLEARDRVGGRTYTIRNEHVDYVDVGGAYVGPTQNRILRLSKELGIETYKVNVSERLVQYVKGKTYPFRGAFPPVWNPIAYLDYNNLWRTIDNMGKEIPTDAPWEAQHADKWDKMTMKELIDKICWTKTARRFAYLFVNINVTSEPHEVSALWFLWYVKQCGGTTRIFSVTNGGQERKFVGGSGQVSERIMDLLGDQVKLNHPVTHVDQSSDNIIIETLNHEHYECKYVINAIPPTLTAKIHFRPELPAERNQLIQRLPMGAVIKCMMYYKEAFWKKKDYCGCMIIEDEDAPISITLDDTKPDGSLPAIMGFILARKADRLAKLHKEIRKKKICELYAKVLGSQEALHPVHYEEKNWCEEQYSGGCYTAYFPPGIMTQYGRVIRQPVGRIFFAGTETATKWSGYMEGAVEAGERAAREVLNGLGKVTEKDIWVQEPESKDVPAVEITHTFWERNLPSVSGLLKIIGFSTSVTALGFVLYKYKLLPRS
In words: MAO-Glo assay, MAO-A. The class given is biochemical. To be noted: read-out: % Inhibition at 20 μM ± SD, MAO-A. As to the method: To determine selectivity, the compounds were tested for activity against the related FAD-dependent amine oxidase enzymes LSD1, MAO-A, and MAO-B. LSD1 activity was assessed using a commercially available assay kit (#700120, Cayman Chemical, Ann Arbor, MI, USA), in which the enzyme activity was determined by the horseradish peroxidase-catalyzed oxidation of 10-acetyl-3,7-dihydroxyphenoxazine to the highly fluorescent resorufin in response to H2O2 production. Monoamine oxidase activity was determined using recombinant human MAO-A and MAO-B (M7316-1VL & M7441-1VL, Sigma-Aldrich, St. Louis, MO, USA) and a commercially available assay kit (#V1401, MAO-Glo, Promega, Madison, WI, USA), which utilizes the MAO-catalyzed oxidation of a luciferin derivative coupled with esterase activity to produce luminescence. Fluorescent and luminescent readout was obtained using a SpectraMax M5 plate reader (Molecular Devices) equipped with SOFTmax PRO 7.0.3 software. […] Values were reported as mean % inhibition ± SD of triplicate assay wells normalized to background activity and compared to the vehicle control.

Data set [1] in a line: Cytotoxicity analysis, MTS assay. The class given is cell-based. To be noted: human, SH-SY5Y neuroblastoma cells, MTS, 12 h post treatment, read-out: LC50 (dose corresponding to 50% viability). As to the method:
(§1) SH-SY5Y neuroblastoma cells purchased from ATCC (Manassas, VA, USA) were cultured in Dulbecco’s modified Eagle medium (DMEM) without phenol red and supplemented with 10% heat inactivated human AB serum, 4 mM L-glutamine, and 1% penicillin/streptomycin. As the oxidation of spermine by various polyamine oxidases has been documented in cell culture containing ruminant serum, such as in fetal bovine serum (FBS) and horse serum, human AB serum was used to prevent assay interference. The cells were maintained in 5% CO2 humidified atmosphere at 37 °C. Cell media was replaced every 2 days and the cells were discarded after a maximum of 15 passages.
(§2) The SH-SY5Y neuroblastoma cells were plated in 96-well plates at a density of 30,000 cells/well and allowed to reach 80% confluence, followed by treatment with varying concentrations of inhibitor ranging from 0 to 10 mM for 12 h. Cell viability was assessed by standard MTS assay, in which MTS reagent was added to each well at a concentration of 0.33 mg/mL and incubated at 37 °C for 3 h. Viability was monitored and confirmed by a visual inspection of the cells. Absorbance was read at 490 nm and the absorbance values were normalized to background wells containing varying concentrations of inhibitor, cell media, and MTS reagent. Colorimetric readout was obtained using a SpectraMax M5 plate reader (Molecular Devices) equipped with SOFTmax PRO 7.0.3 software.
(In general: Formazan colour is commonly taken as a measure of viable cells.)

Data set [2] concerns SH-SY5Y neuroblastoma cells. The data set can be described thus: Cytotoxicity analysis, MTS assay. In kind it is cell-based. The conditions noted are these: doses below 1 mM. As to the method: as §1, §2
The test system of data set [3] is SH-SY5Y neuroblastoma cells. The data set can be described thus: Cell viability following excitotoxic stress (glutamate), MTS assay. To be noted: 80 mM glutamate. The class given is cell-based, human. On the procedure: as §1
The SH-SY5Y neuroblastoma cells were plated at a density of 1 × 10^6 cells/mL in 96-well plates (Costar #9018; clear flat bottom) and allowed to adhere overnight. Media was aspirated and the cells were then treated with low-serum culture media (containing 5% human AB serum), 80 mM of glutamate, and varying concentrations of compound. The glutamate and test compounds were added simultaneously with no pre-incubation period. Cell viability was measured at 16 h and 24 h post-treatment by a standard MTS assay (0.33 mg/mL incubated at 37 °C for 3 h). Absorbance was read at 490 nm following 3-h incubation with MTS reagent. […]

T1 sequence (Q9NWM0 whole entry): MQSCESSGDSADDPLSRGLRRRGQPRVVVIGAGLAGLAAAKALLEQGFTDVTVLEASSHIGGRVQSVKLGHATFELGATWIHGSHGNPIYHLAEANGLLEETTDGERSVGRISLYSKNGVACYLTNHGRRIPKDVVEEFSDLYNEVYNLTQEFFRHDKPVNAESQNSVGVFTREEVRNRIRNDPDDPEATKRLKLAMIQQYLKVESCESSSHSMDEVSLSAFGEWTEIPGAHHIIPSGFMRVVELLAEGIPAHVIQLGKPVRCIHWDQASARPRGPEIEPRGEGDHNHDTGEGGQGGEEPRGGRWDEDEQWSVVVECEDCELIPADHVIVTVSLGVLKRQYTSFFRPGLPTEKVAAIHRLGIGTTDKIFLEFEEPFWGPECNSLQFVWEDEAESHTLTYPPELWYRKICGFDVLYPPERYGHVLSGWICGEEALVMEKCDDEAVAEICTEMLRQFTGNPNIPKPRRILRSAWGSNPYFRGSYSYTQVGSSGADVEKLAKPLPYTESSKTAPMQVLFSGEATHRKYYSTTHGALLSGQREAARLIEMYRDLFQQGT

`Cc1cc([C@H](O)CNCCCNC(=N)N)cc(C)c1O` [Compound 6]: the Mechanism of inhibition result on SMOX (Lineweaver–Burk analysis) is reported as “competitive”. The inhibitory constant (Ki) (in general, a measure of affinity in units of concentration, obtained from inhibition or displacement) at SMOX (global fit for competitive inhibition, inhibitor 0, 0.1, 1 µM) is 1.6 µM. Moreover, the inhibition (commonly the relative decrease from the control value, in per cent) at 20 µM on LSD1 was -24.2 ± 4.5%; at recombinant human MAO-A, -6 ± 2.1%. The CC50 at 12 h in data set [1] was determined as 5800 µM. The “Toxicity after 12-h exposure” value in data set [2] is on record as “did not produce significant toxicity”. Besides, in data set [3] (24 h, 1 mM compound, p = 0.0001 vs vehicle, p = 0.0003 vs MDL 72527), the “Cell viability vs vehicle control and MDL 72527” value is “significantly increased cell viability”. In addition, the viability (as a rule, a per cent measure of how many cells are alive, often set against a control) at 100 µM in data set [3] (Homo sapiens, SH-SY5Y, 16 h, 100 µM compound, vehicle 26.5%, not statistically significant) stood at 48.3%.
